These results are taken from patent US6423753B1, “Use of colchinol derivatives as vascular damaging agents” (priority 1997, dated 2002).

Data set [1] in a line: Maximum tolerated dose (no deaths in three animals). It counts as in vivo. To be noted: for MTD: mouse, in vivo, other tubulin-binding agents, read-out: MTD (mg/kg body weight); for MTD mg/Kg body weight: maximum tolerated dose, no deaths in three animals. The source says: The phosphate compound was compared with the parent N-acetylcolchinol for the maximum tolerated dose (MTD) (no deaths in three animals), minimum effective dose (MED) measured by the fluorescent dye technique already described and the therapeutic window (MTD/MED).

The subject of data set [2] is CaNT tumour. Conditions: for MED (mg/kg body weight): other tubulin-binding agents, by fluorescent dye technique; for % decrease in vascular volume: administered at 50 mg/kg, fluorescent dye technique; for vascular-damaging effects: at Maximum Tolerated Dose (30 mg/kg), 30 mg/kg; for MED mg/Kg body weight: minimum effective dose by the fluorescent dye technique.
For data set [3], the system named is Subcutaneous CaNT tumours. Put plainly: Activity against tumour vasculature measured by radioactive tracer (86RbCl extraction, relative blood flow). It counts as in vivo, mice. To be noted: dose of 125 mg/kg intraperitoneally. The method, then:
Activity Against Tumour Vasculature Measured by Radioactive Tracer.
Subcutaneous CaNT tumours were initiated by injecting 0.05 ml of a crude tumour cell suspension, approximately 10^6 cells, under the skin overlying the rear dorsum of 12-16 week-old mice. The animals were selected for treatment after approximately 3-4 weeks, when their tumours reached a geometric mean diameter of 5.5-6.5 mm. Compounds were dissolved in sterile saline and injected intraperitoneally in a volume of 0.1 ml per 10 g body weight. Tumour perfusion was measured 6 hours after intraperitoneal administration in tumour, kidney, liver, skin muscle, gut and brain by the ^86RbCI extraction technique (Sapirstein, Amer J Physiol, 193, 161-168, 1958). Tissue radioactivity measured 1 minute after an intravenous injection of ^86RbCI was used to calculate relative blood flow as a proportion of cardiac output (Hill and Denekamp, Brit J Radiol, 55, 905-913, 1982). Five animals were used in control and treated groups. Results were expressed as a percentage of the blood flow in the corresponding tissues in vehicle treated animals.

For data set [4] the following is noted: compared with parent N-acetylcolchinol.

Structures are written as SMILES. Where two headings read alike, the source gives them in different places. Some results are limits rather than exact numbers.

For `COc1cc2c(c(OC)c1OC)-c1ccc(OC)c(=O)cc1[C@@H](NC(C)=O)CC2` [Colchicine, reference compound], in data set [1], the MTD stood at 5 mg/kg. In data set [2], the “MED (mg/kg body weight)” value was determined as 2.5 mg/kg body weight.
For `COc1cc2c(c(OC)c1OC)-c1ccc(OC3CCCC3)cc1C(NC(C)=O)CC2` (stereo not drawn) [Example 9, N-Acetyl-O-cyclopentylcolchinol], the “% decrease in vascular volume” value in data set [2] is reported as 59%.
Take `COc1cc2c(c(OC)c1OC)-c1ccc(O)cc1C(NC(=O)Nc1ccccc1)CC2` (stereo not drawn) [Example 4, N-(Phenylcarbamoyl) colchinol]: in data set [2], the “% decrease in vascular volume” value was found to be 37%.
As to `COc1cc2c(c(OC)c1OC)-c1cc([N+](=O)[O-])c(O)cc1C(NC(C)=O)CC2` (stereo not drawn) [Example 10, N-Acetyl-10-nitrocolchinol], the “% decrease in vascular volume” value in data set [2] is 28%.
Still for that read-out and setting: next, `COC(=O)COc1ccc2c(c1)C(NC(C)=O)CCc1cc(OC)c(OC)c(OC)c1-2` (stereo not drawn) [Example 7, N-Acetyl-O-methoxycarbonylmethylcolchinol]: 12%.
For the molecule `CC(=O)O[C@@]12CO[C@@H]1C[C@H](O)[C@@]1(C)C(=O)[C@H](O)C3=C(C)[C@@H](OC(=O)[C@H](O)[C@@H](NC(=O)OC(C)(C)C)c4ccccc4)C[C@@](O)([C@@H](OC(=O)c4ccccc4)[C@H]21)C3(C)C` [Docetaxel, reference compound], the MTD in data set [1] turned out to be 30 mg/kg. For the same molecule, in data set [2], the vascular-damaging effects result is “No effect” and the “MED (mg/kg body weight)” value is reported as above 30 mg/kg body weight. Further, the vascular-damaging effects result in data set [2] (listed as docetaxel) is reported as “no vascular-damaging effects”.
With `COc1cc2c(c(OC)c1OC)-c1ccc(OP(=O)(O)O)cc1C(NC(C)=O)CC2` (stereo not drawn) [Example 1, N-Acetylcolchinol-O-phosphate], in data set [3] (measured 6 hours after administration, relative to vehicle treated animals), the “decrease in tumour blood flow” value is recorded as 65%. For the same molecule, the “reduction in blood flow in skin, muscle, liver, kidney, gut or heart” value in data set [3] (normal tissues) is listed as “no significant reduction”. Moreover, the “MTD mg/Kg body weight” value in data set [1] was found to be 750 mg/Kg body weight. For the same molecule, in data set [2], the “% decrease in vascular volume” value turned out to be 89% and the “MED mg/Kg body weight” value is reported as 50 mg/Kg body weight. The solubility entry in data set [4] was “greater solubility”.
Take `COc1cc2c(c(OC)c1OC)-c1ccc(O)cc1C(NS(=O)(=O)N(C)C)CC2` (stereo not drawn) [Example 6, N-Dimethylsulphamoylcolchinol]: the “% decrease in vascular volume” value in data set [2] is on record as 30%.
For the molecule `COc1cc2c(c(OC)c1OC)-c1ccc(O)cc1[C@@H](NC(C)=O)CC2` [N-acetylcolchinol, reference compound], the “MTD mg/Kg body weight” value in data set [1] is 125 mg/Kg body weight. In data set [2], the “% decrease in vascular volume” value is 78% and the “MED mg/Kg body weight” value is listed as 30 mg/Kg body weight.
With `CCNC1CCc2cc(OC)c(OC)c(OC)c2-c2ccc(O)cc21` (stereo not drawn) [Example 2, N-Ethylcolchinol], the “% decrease in vascular volume” value in data set [2] is recorded as 38%.
For the molecule `COc1cc2c(c(OC)c1OC)-c1ccc(OCC(=O)O)cc1C(NC(C)=O)CC2` (stereo not drawn) [Example 8, N-Acetyl-O-carboxymethylcolchinol], in data set [2], the “% decrease in vascular volume” value is 49%.
With `COc1cc2c(c(OC)c1OC)-c1ccc(O)cc1C(NC(=O)OCc1ccccc1)CC2` (stereo not drawn) [Example 3, N-Benzyloxvcarbonylcolchinol], the “% decrease in vascular volume” value in data set [2] came to 43%.
As for `COc1cc2c(c(OC)c1OC)-c1ccc(O)cc1C(NS(C)(=O)=O)CC2` (stereo not drawn) [Example 5, N-Mesylcolchinol], the “% decrease in vascular volume” value in data set [2] worked out at 38%.
